Experimental data taken from patent US20160113932A1, “TREATMENT OF CANCERS USING PI3 KINASE ISOFORM MODULATORS” (INFINITY PHARMACEUTICALS, INC., priority 2013, published 2016).

Assays:
[1] = test system: phospho-AKT in OCI-LY-8 cells; assay: phospho-AKT after BCR crosslinking; type: cell-based
Method: Activation of the PI3K pathway is an important component of normal B-cell receptor (BCR) signaling and has been implicated in the pathogenesis of DLBCL. […] There was rapid modulation of phospho-AKT and phospho-PRAS40 by 30 minutes, whereas modulation of phospho-S6 was not detected until after 8 hours.
These biochemical findings indicate a mechanistic rationale for combination of PI3K-δ,γ and BTK inhibition.

RL = assay: Combination with BTK inhibitor, 72 h ATPLite, 6x6 dose matrix (follicular lymphoma); type: cell-based; conditions: in combination with Compound 292
Method: (§1) The method is described as follows. Cells are thawed from a liquid nitrogen preserved state. Once cells have been expanded and divide at their expected doubling times, screening begins. Cells are seeded in growth media in either black 1536-well or 384-well tissue culture treated plates. […] These Tzero (T0) plates are read using ultra-sensitive luminescence on Envision plate readers (Perkin Elmer). […] All data points are collected via automated processes, quality controlled and analyzed using Zalicus software.
(§2) I ranges from 0% (when T=V) to 100% (when T=0). […] The measure of effect in the experiment can be the inhibition of cellular response relative to the untreated level (vehicle alone). For untreated vehicle and treated levels V and T, a fractional inhibition 1=1−T/V is calculated. The inhibition ranges from 0% at the untreated level to 100% when T=0 Inhibition levels are negative for agents that actually increase levels. Other effect measures, such as an activity ratio r=T/V may be more appropriate for some assays. When activity ratios (e.g, fold increase over […] control) are being used, the effect can be measured using an induction I=1n(T/V). With this definition, all effect expressions are the same as for inhibition.
(§3) Growth Inhibition (GI) is used as a measure of cell viability. […] A GI reading of 100% represents complete growth inhibition-T72 compound-treated and T0 vehicle signals are matched. […] A GI reading of 200% represents complete death of all cells in the culture well. Compounds reaching an activity plateau of GI 200% are considered cytotoxic. GI is calculated by applying the following test and equation: […]
(§4) Combination analysis data were collected in a 6×6 dose matrix. Synergy is calculated by comparing a combination's response to those of its single compound, against the drug-with-itself dose-additive reference model. Deviations from dose additivity may be assessed visually on an isobologram or numerically with a Combination Index (CI). […] Additive effect is CI=1.0. […] Antagonistic effect is CI>1.0.
(§5) To measure combination effects in excess of Loewe additivity, a scalar measure to characterize the strength of synergistic interaction termed the Synergy Score is devised. The Synergy Score is calculated as: […]
(§6) The fractional inhibition for each component agent and combination point in the matrix is calculated relative to the median of all vehicle-treated control wells. The Synergy Score equation integrates the experimentally-observed activity volume at each point in the matrix in excess of a model surface numerically derived from the activity of the component agents using the Loewe model for additivity. Additional terms in the Synergy Score equation (above) are used to normalize for various dilution factors used for individual agents and to allow for comparison of synergy scores across an entire experiment. The inclusion of positive inhibition gating or an Idata multiplier removes noise near the zero effect level, and biases results for synergistic interactions at that occur at high activity levels.
(§7) Loewe Volume (Loewe Vol) is used to assess the overall magnitude of the combination interaction in excess of the Loewe additivity model. Loewe Volume is particularly useful when distinguishing synergistic increases in a phenotypic activity (positive Loewe Volume) versus synergistic antagonisms (negative Loewe Volume). […] This model defines additivity as a non-synergistic combination interaction where the combination dose matrix surface should be indistinguishable from either drug crossed with itself.

Mino = conditions: in combination with Compound 292
Method: as §1, §2, §3, §4, §5, §6, §7

OCI-Ly7 = conditions: in combination with Compound 292
Method: as §1, §2, §3, §4, §5, §6, §7

DOHH-2 = conditions: in combination with Compound 292
Method: as §1, §2, §3, §4, §5, §6, §7

KARPAS-422 = conditions: in combination with Compound 292
Method: as §1, §2, §3, §4, §5, §6, §7

OCI-LY3 = conditions: in combination with Compound 292
Method: as §1, §2, §3, §4, §5, §6, §7

U-2932 = conditions: in combination with Compound 292
Method: as §1, §2, §3, §4, §5, §6, §7

GRANTA-519 = conditions: in combination with Compound 292
Method: as §1, §2, §3, §4, §5, §6, §7

Farage = conditions: in combination with Compound 292
Method: as §1, §2, §3, §4, §5, §6, §7

Jeko-1 = conditions: in combination with Compound 292
Method: as §1, §2, §3, §4, §5, §6, §7

WSU-NHL = conditions: in combination with Compound 292
Method: as §1, §2, §3, §4, §5, §6, §7

SU-DHL-4-epst = conditions: in combination with Compound 292
Method: as §1, §2, §3, §4, §5, §6, §7

KARPAS-299 = conditions: in combination with Compound 292
Method: as §1, §2, §3, §4, §5, §6, §7

SU-DHL-10-epst = conditions: in combination with Compound 292
Method: as §1, §2, §3, §4, §5, §6, §7

HBL-1 = conditions: in combination with Compound 292
Method: as §1, §2, §3, §4, §5, §6, §7

OPM-2 = conditions: in combination with Compound 292
Method: as §1, §2, §3, §4, §5, §6, §7

HH = conditions: in combination with Compound 292
Method: as §1, §2, §3, §4, §5, §6, §7

NCI-H929 = conditions: in combination with Compound 292
Method: as §1, §2, §3, §4, §5, §6, §7

TMD8 = conditions: in combination with Compound 292
Method: as §1, §2, §3, §4, §5, §6, §7

[2] = test system: SU-DHL-4 GCB DLBCL cell line; assay: Cell viability with Compound 292, ibrutinib or combination, 72 h CellTiter Glo; type: cell-based; conditions: SU-DHL-4, 72 hours
phospho-BTK in SU-DHL-4 = assay: phospho-BTK in DLBCL cells; type: cell-based

## C=CC(=O)N1CCC[C@@H](n2nc(-c3ccc(Oc4ccccc4)cc3)c3c(N)ncnc32)C1 [ibrutinib, 1-[(3R)-3-[4-Amino-3-(4-phenoxyphenyl)pyrazolo[3,4-d]pyrimidin-1-yl]piperidin-1-yl]prop-2-en-1-one]
[1]
  inhibition of the increase in phospho-AKT: only partially inhibited
RL
  CI50 (growth inhibition): U (U=0.7 to <1)
  CI50 (inhibition): W (W=≧1)
  Synergy Score (growth inhibition): A2 (A2=1 to <3)
  Synergy Score (inhibition): A2 (A2=1 to <3)
Mino
  CI50 (growth inhibition): T (T=0.5 to <0.7)
  CI50 (inhibition): S (S=0.01 to <0.5)
  Synergy Score (growth inhibition): A3 (A3=>3)
  Synergy Score (inhibition): A2 (A2=1 to <3)
OCI-Ly7
  Synergy Score (growth inhibition): A1 (A1=0.0001 to <1)
  Synergy Score (inhibition): A1 (A1=0.0001 to <1)
DOHH-2
  CI50 (growth inhibition): S (S=0.01 to <0.5)
  CI50 (inhibition): S (S=0.01 to <0.5)
  Synergy Score (growth inhibition): A3 (A3=>3)
  Synergy Score (inhibition): A3 (A3=>3)
KARPAS-422
  CI50 (growth inhibition): S (S=0.01 to <0.5)
  CI50 (inhibition): S (S=0.01 to <0.5)
  Synergy Score (growth inhibition): A2 (A2=1 to <3)
  Synergy Score (inhibition): A2 (A2=1 to <3)
OCI-LY3
  Synergy Score (growth inhibition): A1 (A1=0.0001 to <1)
  Synergy Score (inhibition): A1 (A1=0.0001 to <1)
U-2932
  CI50 (growth inhibition): S (S=0.01 to <0.5)
  CI50 (inhibition): T (T=0.5 to <0.7)
  Synergy Score (growth inhibition): A2 (A2=1 to <3)
  Synergy Score (inhibition): A1 (A1=0.0001 to <1)
GRANTA-519
  CI50 (growth inhibition): S (S=0.01 to <0.5)
  Synergy Score (growth inhibition): A2 (A2=1 to <3)
  Synergy Score (inhibition): A1 (A1=0.0001 to <1)
Farage
  CI50 (growth inhibition): S (S=0.01 to <0.5)
  CI50 (inhibition): S (S=0.01 to <0.5)
  Synergy Score (growth inhibition): A3 (A3=>3)
  Synergy Score (inhibition): A3 (A3=>3)
Jeko-1
  CI50 (growth inhibition): S (S=0.01 to <0.5)
  CI50 (inhibition): T (T=0.5 to <0.7)
  Synergy Score (growth inhibition): A2 (A2=1 to <3)
  Synergy Score (inhibition): A2 (A2=1 to <3)
WSU-NHL
  CI50 (growth inhibition): T (T=0.5 to <0.7)
  CI50 (inhibition): S (S=0.01 to <0.5)
  Synergy Score (growth inhibition): A3 (A3=>3)
  Synergy Score (inhibition): A3 (A3=>3)
SU-DHL-4-epst
  CI50 (growth inhibition): S (S=0.01 to <0.5)
  CI50 (inhibition): S (S=0.01 to <0.5)
  Synergy Score (growth inhibition): A3 (A3=>3)
  Synergy Score (inhibition): A3 (A3=>3)
KARPAS-299
  Synergy Score (growth inhibition): A1 (A1=0.0001 to <1)
  Synergy Score (inhibition): A1 (A1=0.0001 to <1)
SU-DHL-10-epst
  CI50 (growth inhibition): S (S=0.01 to <0.5)
  CI50 (inhibition): S (S=0.01 to <0.5)
  Synergy Score (growth inhibition): A3 (A3=>3)
  Synergy Score (inhibition): A3 (A3=>3)
HBL-1
  CI50 (growth inhibition): S (S=0.01 to <0.5)
  Synergy Score (growth inhibition): A3 (A3=>3)
  Synergy Score (inhibition): A1 (A1=0.0001 to <1)
OPM-2
  Synergy Score (growth inhibition): A1 (A1=0.0001 to <1)
  Synergy Score (inhibition): A1 (A1=0.0001 to <1)
HH
  CI50 (growth inhibition): S (S=0.01 to <0.5)
  CI50 (inhibition): S (S=0.01 to <0.5)
  Synergy Score (growth inhibition): A2 (A2=1 to <3)
  Synergy Score (inhibition): A2 (A2=1 to <3)
NCI-H929
  CI50 (growth inhibition): U (U=0.7 to <1)
  CI50 (inhibition): S (S=0.01 to <0.5)
  Synergy Score (growth inhibition): A2 (A2=1 to <3)
  Synergy Score (inhibition): A1 (A1=0.0001 to <1)
TMD8
  CI50 (growth inhibition): S (S=0.01 to <0.5)
  CI50 (inhibition): S (S=0.01 to <0.5)
  Synergy Score (growth inhibition): A3 (A3=>3)
  Synergy Score (inhibition): A3 (A3=>3)
[2]
  cell viability, monotherapy: dose dependently inhibited viability
phospho-BTK in SU-DHL-4
  inhibition of phospho-BTK: robust inhibition
